Assay results taken from patent US12077503B2, “Substituted cyclic amides and their use as herbicides” (FMC CORPORATION, priority 2015, dated 2024).

Tests used:
Format in all cases: in vivo
[1] = system: Kochia (Kochia scoparia); experiment: Test A preemergence
How it was run: (§1)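 Compounds were formulated in a non-phytotoxic solvent mixture with surfactant and applied as a preemergence directed soil spray after seeding, or sprayed postemergence over plants 2 to 10 cm tall at the one- to two-leaf stage. Evaluation after about 10 d compared treated with untreated controls, using a scale from 0 (no effect) to 100 (complete control).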

[2] = system: barnyardgrass (Echinochloa crus-galli); experiment: Test A preemergence
How it was run: as §1

[3] = system: giant foxtail (Setaria faberii); experiment: Test A preemergence
How it was run: as §1

[4] = system: pigweed (Amaranthus retroflexus); experiment: Test A preemergence; details: preemergence
[5] = system: ragweed (common ragweed, Ambrosia elatior); experiment: Test A preemergence; details: preemergence
How it was run: as §1

[6] = system: ryegrass, Italian (Italian ryegrass, Lolium multiflorum); experiment: Test A preemergence; details: preemergence
How it was run: as §1

[7] = system: Galium (catchweed bedstraw, Galium aparine); experiment: Test A postemergence; details: postemergence, 0 to 100 scale (0 no effect, 100 complete control)
How it was run: as §1

[8] = system: Kochia (Kochia scoparia); experiment: Test A postemergence; details: postemergence, 0 to 100 scale (0 no effect, 100 complete control)
How it was run: as §1

[9] = system: barnyardgrass (Echinochloa crus-galli); experiment: Test A postemergence; details: postemergence, 0 to 100 scale (0 no effect, 100 complete control)
How it was run: as §1

[10] = system: blackgrass (Alopecurus myosuroides); experiment: Test A postemergence; details: postemergence, 0 to 100 scale (0 no effect, 100 complete control)
How it was run: as §1

[11] = system: corn (Zea mays); experiment: Test A postemergence; details: postemergence, 0 to 100 scale (0 no effect, 100 complete control)
How it was run: as §1

[12] = system: giant foxtail (Setaria faberii); experiment: Test A postemergence; details: postemergence, 0 to 100 scale (0 no effect, 100 complete control)
How it was run: as §1

[13] = system: pigweed (Amaranthus retroflexus); experiment: Test A postemergence; details: postemergence, 0 to 100 scale (0 no effect, 100 complete control)
How it was run: as §1

[14] = system: ragweed (common ragweed, Ambrosia elatior); experiment: Test A postemergence; details: postemergence, 0 to 100 scale (0 no effect, 100 complete control)
How it was run: as §1

[15] = system: ryegrass, Italian (Italian ryegrass, Lolium multiflorum); experiment: Test A postemergence; details: postemergence, 0 to 100 scale (0 no effect, 100 complete control)
How it was run: as §1

[16] = system: wheat (Triticum aestivum); experiment: Test A postemergence; details: postemergence, 0 to 100 scale (0 no effect, 100 complete control)
How it was run: as §1

[17] = system: barnyardgrass (Echinochloa crus-galli); experiment: Test B flooded paddy test; details: Flood, 0 to 100 scale where 0 is no effect and 100 is complete control, 13 to 15 d
How it was run: (§2)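 Flooding to 3 cm over soil accompanied treatment, which consisted of adding compound to the standing water around 2-leaf plants; depth was then maintained. Visual assessment versus controls followed at 13 to 15 d (scale 0–100, 0 meaning no effect).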

[18] = system: ducksalad (Heteranthera limosa); experiment: Test B flooded paddy test; details: Flood, 0 to 100 scale where 0 is no effect and 100 is complete control, 13 to 15 d
How it was run: as §2

[19] = system: rice (Oryra sativa); experiment: Test B flooded paddy test; details: Flood, 0 to 100 scale where 0 is no effect and 100 is complete control, 13 to 15 d
How it was run: as §2

[20] = system: sedge, umbrella (small-flower umbrella sedge, Cyperus difformis); experiment: Test B flooded paddy test; details: Flood; for Plant response rating, Sedge, Umbrella: 0 to 100 scale where 0 is no effect and 100 is complete control, 13 to 15 d
How it was run: as §2

[21] = 125 g ai/ha, Preemergence, visual injury after approximately 10 d, 0 to 100 scale where 0 is no effect and 100 is complete control
[22] = 500 g ai/ha, preemergence, 0 to 100 scale, 0 = no effect, 100 = complete control
[23] = 125 g ai/ha, visual rating after approx. 10 d, 0 to 100 scale where 0 is no effect and 100 is complete control
[24] = 500 g ai/ha, 0 to 100 scale, 0 = no effect, 100 = complete control
[25] = 125 g ai/ha, visual injury after approximately 10 d
[26] = 500 g ai/ha, visual injury, approx. 10 d
[27] = 125 g ai/ha, visual rating after approx. 10 d
[28] = 125 g ai/ha, preemergence, visual rating after approx. 10 d, 0 to 100 scale where 0 is no effect and 100 is complete control

| Compound | Plant response rating, Barnyardgrass [2, 22] | Plant response rating, Foxtail, Giant [3, 22] | Plant response rating, Pigweed [4, 23] | Plant response rating, Pigweed [4, 24] | Plant response rating, Ragweed [5, 23] | Plant response rating, Ragweed [5, 24] | Plant response rating, Ryegrass, Italian [6, 23] | Plant response rating, Ryegrass, Italian [6, 24] | Plant response rating, Galium [7, 25] | Plant response rating, Galium [7, 26] | Plant response rating, Kochia [8, 25] | Plant response rating, Kochia [8, 26] | Plant response rating, Barnyardgrass [9, 26] | Plant response rating, Blackgrass [10, 26] | Plant response rating, Corn [11, 25] | Plant response rating, Corn [11, 26] | Plant response rating, Foxtail, Giant [12, 25] | Plant response rating, Foxtail, Giant [12, 26] | Plant response rating, Pigweed [13, 25] | Plant response rating, Pigweed [13, 26] | other results |
| --- | --- | --- | --- | --- | --- | --- | --- | --- | --- | --- | --- | --- | --- | --- | --- | --- | --- | --- | --- | --- | --- |
| O=C1NCC(c2cccc(Br)c2)C1C(=O)Nc1ccccc1F (racemic) [Compound 686] | 90 | 90 | 0 | 20 | 0 | 0 | 0 | 20 | 0 | 20 | 0 | 30 | 90 | 40 | 0 | 50 | 80 | 90 | 0 | 20 | Plant response rating, Kochia [1, 21]: 0; Plant response rating, Kochia [1, 22]: 40; Plant response rating, Barnyardgrass [2, 21]: 90; Plant response rating, Foxtail, Giant [3, 21]: 90; Plant response rating, Barnyardgrass [9, 27]: 90; Plant response rating, Blackgrass [10, 27]: 20; Plant response rating, Ragweed [14, 25]: 20; Plant response rating, Ragweed [14, 26]: 20; Plant response rating, Ryegrass, Italian [15, 25]: 20; Plant response rating, Ryegrass, Italian [15, 26]: 40; Plant response rating, Wheat [16, 25]: 0; Plant response rating, Wheat [16, 26]: 30; Plant response rating, Barnyardgrass ([17]; 250 g ai/ha): 35; Plant response rating, Ducksalad ([18]; 250 g ai/ha): 90; Plant response rating, Rice ([19]; 250 g ai/ha): 0; Plant response rating, Sedge, Umbrella ([20]; 250 g ai/ha): 0 |
| O=C1NCC(c2cccc(Br)c2)C1C(=O)Nc1ccc(F)c(F)c1F (racemic) [Compound 689] | 90 | 90 | 20 | 40 | 0 | 30 | 0 | 20 | 50 | 50 | 30 | 60 | 90 | 60 | 60 | 80 | 80 | 90 | 30 | 60 | Plant response rating, Kochia [1, 21]: 20; Plant response rating, Kochia [1, 22]: 60; Plant response rating, Barnyardgrass [2, 21]: 90; Plant response rating, Foxtail, Giant [3, 21]: 90; Plant response rating, Barnyardgrass [9, 27]: 90; Plant response rating, Blackgrass [10, 27]: 50; Plant response rating, Ragweed [14, 25]: 0; Plant response rating, Ragweed [14, 26]: 50; Plant response rating, Ryegrass, Italian [15, 25]: 30; Plant response rating, Ryegrass, Italian [15, 26]: 60; Plant response rating, Wheat [16, 25]: 20; Plant response rating, Wheat [16, 26]: 60; Plant response rating, Barnyardgrass ([17]; 250 g ai/ha): 40; Plant response rating, Ducksalad ([18]; 250 g ai/ha): 98; Plant response rating, Rice ([19]; 250 g ai/ha): 0; Sedge, Umbrella plant response rating ([20]; 250 g ai/ha, scale of 0 to 100 where 0 is no effect and 100 is complete control): 0 |
| O=C1NCC(c2cccc(OC(F)(F)C(F)F)c2)C1C(=O)Nc1ccc(F)cc1F (racemic) [Compound 696] | 90 | 90 | 20 | 30 | 0 | 40 | 30 | 60 | 50 | 70 | 30 | 40 | 80 | 40 | 40 | 70 | 80 | 80 | 30 | 60 | Plant response rating, Kochia [1, 28]: 40; Plant response rating, Kochia [1, 22]: 60; Plant response rating, Barnyardgrass [2, 28]: 80; Plant response rating, Foxtail, Giant [3, 28]: 90; Plant response rating, Barnyardgrass [9, 25]: 80; Plant response rating, Blackgrass [10, 25]: 30; Plant response rating, Ragweed [14, 25]: 20; Plant response rating, Ragweed [14, 26]: 40; Plant response rating, Ryegrass, Italian [15, 25]: 30; Plant response rating, Ryegrass, Italian [15, 26]: 40; Plant response rating, Wheat [16, 25]: 30; Plant response rating, Wheat [16, 26]: 50; Plant response rating, Barnyardgrass ([17]; 500 g ai/ha): 75; Plant response rating, Ducksalad ([18]; 500 g ai/ha): 90; Plant response rating, Rice ([19]; 500 g ai/ha): 35; Plant response rating, Sedge, Umbrella ([20]; 500 g ai/ha): 0 |
| O=C1NCC(c2ccc(I)cc2)C1C(=O)Nc1ccccc1F (racemic) [Compound 702] | 90 | 90 | 0 | 30 | 0 | 0 | 0 | 0 | 0 | 40 | 0 | 0 | 70 | 0 | 0 | 0 | 30 | 80 | 0 | 0 | Plant response rating, Kochia [1, 28]: 20; Plant response rating, Kochia [1, 22]: 20; Plant response rating, Barnyardgrass [2, 28]: 70; Plant response rating, Foxtail, Giant [3, 28]: 90; Plant response rating, Barnyardgrass [9, 25]: 70; Plant response rating, Blackgrass [10, 25]: 0; Plant response rating, Ragweed [14, 25]: 0; Plant response rating, Ragweed [14, 26]: 0; Plant response rating, Ryegrass, Italian [15, 25]: 0; Plant response rating, Ryegrass, Italian [15, 26]: 0; Plant response rating, Wheat [16, 25]: 0; Plant response rating, Wheat [16, 26]: 0; Plant response rating, Barnyardgrass ([17]; 500 g ai/ha): 50; Plant response rating, Ducksalad ([18]; 500 g ai/ha): 100; Plant response rating, Rice ([19]; 500 g ai/ha): 20; Plant response rating, Sedge, Umbrella ([20]; 500 g ai/ha): 0 |
| O=C1NCC(c2ccc(I)cc2)C1C(=O)Nc1cccc(F)c1 (racemic) [Compound 703] | 80 | 90 | 0 | 0 | 0 | 0 | 0 | 0 | 0 | 0 | 0 | 0 | 70 | 0 | 0 | 0 | 50 | 90 | 0 | 0 | Plant response rating, Kochia [1, 28]: 0; Plant response rating, Barnyardgrass [2, 28]: 20; Plant response rating, Foxtail, Giant [3, 28]: 80; Plant response rating, Barnyardgrass [9, 25]: 60; Plant response rating, Blackgrass [10, 25]: 0; Plant response rating, Ragweed [14, 25]: 0; Plant response rating, Ragweed [14, 26]: 0; Plant response rating, Ryegrass, Italian [15, 25]: 0; Plant response rating, Ryegrass, Italian [15, 26]: 0; Plant response rating, Wheat [16, 25]: 0; Plant response rating, Wheat [16, 26]: 0; Plant response rating, Barnyardgrass ([17]; 500 g ai/ha): 30; Plant response rating, Ducksalad ([18]; 500 g ai/ha): 98; Plant response rating, Rice ([19]; 500 g ai/ha): 0; Plant response rating, Sedge, Umbrella ([20]; 500 g ai/ha): 0 |
